Results as given in ChEMBL document CHEMBL4477234, “Potent Suppressive Effects of 1-Piperidinylimidazole Based Novel P2X7 Receptor Antagonists on Cancer Cell Migration and Invasion” (J Med Chem, 2016).
Active and inactive are the calls of the source. The calls are words filed in the database; no cut-off is given here.

Experiments:
P2X purinoceptor 1 = target: T1, P2X purinoceptor 1 (Rattus norvegicus, UniProt P47824); experiment: Antagonist activity at P2X1 receptor in rat vas deferens assessed as inhibition of alpha/beta-meATP-induced calcium influx
T1 sequence (P47824 whole entry): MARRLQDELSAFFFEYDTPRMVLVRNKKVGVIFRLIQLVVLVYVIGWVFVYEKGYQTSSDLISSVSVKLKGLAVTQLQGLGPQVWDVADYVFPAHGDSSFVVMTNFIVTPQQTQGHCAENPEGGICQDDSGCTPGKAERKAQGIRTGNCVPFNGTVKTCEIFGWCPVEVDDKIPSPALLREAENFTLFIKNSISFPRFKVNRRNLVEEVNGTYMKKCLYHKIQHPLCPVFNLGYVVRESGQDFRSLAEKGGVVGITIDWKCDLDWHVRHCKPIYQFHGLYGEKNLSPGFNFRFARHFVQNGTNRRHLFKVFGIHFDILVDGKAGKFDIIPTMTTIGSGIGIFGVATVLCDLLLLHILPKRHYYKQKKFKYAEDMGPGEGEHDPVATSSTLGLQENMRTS

[1] = target: T2, P2X purinoceptor 2 (Homo sapiens) (UniProt Q9UBL9); experiment: Antagonist activity at human P2X2 receptor expressed in human 1321N1 cells assessed as inhibition of ATP-induced calcium influx at 1 uM preincubated for 30 mins prior to ATP-stimulation by calcium influx assay; format: cell-based
T2 sequence (whole entry): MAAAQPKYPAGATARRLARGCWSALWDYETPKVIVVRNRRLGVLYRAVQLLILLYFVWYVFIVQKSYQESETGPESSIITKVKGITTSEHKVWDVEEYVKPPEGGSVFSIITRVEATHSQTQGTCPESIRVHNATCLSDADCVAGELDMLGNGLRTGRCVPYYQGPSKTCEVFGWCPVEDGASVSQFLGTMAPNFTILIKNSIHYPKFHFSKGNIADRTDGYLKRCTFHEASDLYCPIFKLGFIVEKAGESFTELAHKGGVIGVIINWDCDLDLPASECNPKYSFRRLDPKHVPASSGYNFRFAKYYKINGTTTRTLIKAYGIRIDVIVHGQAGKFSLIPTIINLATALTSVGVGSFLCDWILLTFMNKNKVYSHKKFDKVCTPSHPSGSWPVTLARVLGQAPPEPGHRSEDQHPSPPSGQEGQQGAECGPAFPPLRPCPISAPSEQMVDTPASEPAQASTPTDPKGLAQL

[2] = target: T3, P2X purinoceptor 1 (Homo sapiens) (UniProt P51575); experiment: Antagonist activity at human P2X1 receptor expressed in human 1321N1 cells assessed as inhibition of ATP-induced calcium influx at 1 uM preincubated for 30 mins prior to ATP-stimulation by calcium influx assay; format: cell-based
T3 sequence (whole entry): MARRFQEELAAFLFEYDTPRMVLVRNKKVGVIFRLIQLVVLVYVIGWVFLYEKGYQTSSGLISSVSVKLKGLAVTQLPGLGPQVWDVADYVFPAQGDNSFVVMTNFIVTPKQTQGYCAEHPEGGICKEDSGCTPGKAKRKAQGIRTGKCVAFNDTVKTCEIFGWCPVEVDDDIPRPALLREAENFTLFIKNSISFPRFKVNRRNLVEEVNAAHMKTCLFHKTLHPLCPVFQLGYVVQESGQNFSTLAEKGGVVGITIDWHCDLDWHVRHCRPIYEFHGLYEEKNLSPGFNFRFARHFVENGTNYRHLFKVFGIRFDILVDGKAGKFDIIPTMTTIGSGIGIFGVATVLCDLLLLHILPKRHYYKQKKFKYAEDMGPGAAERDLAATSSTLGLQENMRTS

[3] = target: T4, P2X purinoceptor 4 (Homo sapiens) (UniProt Q99571); experiment: Antagonist activity at human P2X4 receptor expressed in human 1321N1 cells assessed as inhibition of ATP-induced calcium influx at 1 uM preincubated for 30 mins prior to ATP-stimulation by calcium influx assay; format: cell-based
T4 sequence (whole entry): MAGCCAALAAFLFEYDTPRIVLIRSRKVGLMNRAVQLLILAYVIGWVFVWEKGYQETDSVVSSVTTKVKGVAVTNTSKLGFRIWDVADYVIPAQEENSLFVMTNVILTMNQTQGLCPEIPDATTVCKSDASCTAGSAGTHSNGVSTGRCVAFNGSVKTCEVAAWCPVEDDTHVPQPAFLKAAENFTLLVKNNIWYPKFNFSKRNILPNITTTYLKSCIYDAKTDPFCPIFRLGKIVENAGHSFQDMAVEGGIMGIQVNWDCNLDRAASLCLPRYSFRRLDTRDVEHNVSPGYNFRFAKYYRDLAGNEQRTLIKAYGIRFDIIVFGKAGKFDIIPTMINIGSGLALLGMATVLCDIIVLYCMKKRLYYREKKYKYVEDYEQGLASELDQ

P2X purinoceptor 3 [4] = target: T5, P2X purinoceptor 3 (Homo sapiens, UniProt P56373); experiment: Antagonist activity at human P2X3 receptor expressed in human 1321N1 cells assessed as inhibition of ATP-induced calcium influx preincubated for 30 mins prior to ATP-stimulation by calcium influx assay; format: cell-based
T5 sequence (P56373 whole entry): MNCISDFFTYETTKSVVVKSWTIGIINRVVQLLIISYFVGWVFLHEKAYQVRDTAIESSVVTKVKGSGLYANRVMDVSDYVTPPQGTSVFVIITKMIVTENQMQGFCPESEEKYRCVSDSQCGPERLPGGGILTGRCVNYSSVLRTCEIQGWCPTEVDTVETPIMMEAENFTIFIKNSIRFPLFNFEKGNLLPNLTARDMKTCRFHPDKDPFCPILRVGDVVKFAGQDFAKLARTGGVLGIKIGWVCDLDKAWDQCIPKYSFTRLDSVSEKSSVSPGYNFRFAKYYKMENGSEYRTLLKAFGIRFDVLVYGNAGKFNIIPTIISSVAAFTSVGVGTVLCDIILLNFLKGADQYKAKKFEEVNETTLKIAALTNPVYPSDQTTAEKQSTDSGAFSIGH

P2X purinoceptor 7 [5] = target: T6, P2X purinoceptor 7 (Homo sapiens, UniProt Q99572); experiment: Antagonist activity at human P2X7 receptor in LPS/IFN-gamma-differentiated human THP-1 cells assessed as suppression of BzATP-stimulated IL-1beta release per-incubated for 30 mins before BzATP addition and measured after 30 mins by ELISA; format: cell-based
T6 sequence (Q99572 whole entry): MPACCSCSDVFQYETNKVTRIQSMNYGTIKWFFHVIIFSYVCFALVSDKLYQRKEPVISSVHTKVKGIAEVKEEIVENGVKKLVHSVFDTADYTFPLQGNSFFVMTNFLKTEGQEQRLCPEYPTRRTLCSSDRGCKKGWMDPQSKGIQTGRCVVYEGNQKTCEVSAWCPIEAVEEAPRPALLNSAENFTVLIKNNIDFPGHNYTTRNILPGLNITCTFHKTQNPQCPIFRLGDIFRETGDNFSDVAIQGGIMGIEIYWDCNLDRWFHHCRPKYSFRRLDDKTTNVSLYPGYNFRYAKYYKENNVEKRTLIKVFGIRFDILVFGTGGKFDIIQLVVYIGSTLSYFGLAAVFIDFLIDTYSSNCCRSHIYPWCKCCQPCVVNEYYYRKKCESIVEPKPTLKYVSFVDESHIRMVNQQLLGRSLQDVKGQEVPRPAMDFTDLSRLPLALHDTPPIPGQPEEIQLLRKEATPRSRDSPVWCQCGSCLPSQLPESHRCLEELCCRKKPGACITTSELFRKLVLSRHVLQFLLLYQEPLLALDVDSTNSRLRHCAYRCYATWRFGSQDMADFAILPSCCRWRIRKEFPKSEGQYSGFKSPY

P2X purinoceptor 7 [6] = target: T6, P2X purinoceptor 7; experiment: Antagonist activity at human P2X7 receptor
P2X purinoceptor 7 [7] = target: T6, P2X purinoceptor 7; experiment: Antagonist activity at human P2X7 receptor expressed in HEK293 cells assessed as inhibition of BzATP-induced EtBr uptake measured after 2 hrs by fluorescence analysis; format: cell-based
MDA-MB-231 [8] = experiment: Cytotoxicity against human MDA-MB-231 cells assessed as reduction in cell viability at 2.5 to 10 uM measured after 48 hrs by WST-1 cell viability assay; format: cell-based; conditions: mda-mb-231, 48 h
MDA-MB-231 [9] = experiment: Antiinvasive activity against human MDA-MB-231 cells measured after 48 hrs by transwell invasion assay; format: functional, cell-based; conditions: MDA-MB-231, 48 h
Homo sapiens = species: Homo sapiens; experiment: Selectivity ratio, ratio of IC50 for human P2X3 receptor expressed in human 1321N1 cells to human P2X7 receptor expressed in HEK293 cells; format: cell-based
[10] = Toxicity in zebrafish assessed as induction of teratogenic developmental toxicity at 10 uM; set-up: species or system Danio rerio; conditions: in vivo
MDA-MB-231 [11] = experiment: Antimigratory activity against human MDA-MB-231 cells xenografted in zebrafish assessed as inhibition of cell dissemination and invasion at 10 uM measured after 4 days by fluorescence microscopic analysis relative to control; format: functional, cell-based
[12] = target: T7, P2X purinoceptor 3 (Homo sapiens) (UniProt P56373); experiment: Antagonist activity at human P2X3 receptor expressed in human 1321N1 cells assessed as inhibition of ATP-induced calcium influx at 1 uM preincubated for 30 mins prior to ATP-stimulation by calcium influx assay; format: cell-based
T7 sequence (whole entry): T5 sequence (P56373 whole entry)

[13] = target: T4, P2X purinoceptor 4 (Homo sapiens); experiment: Antagonist activity at human P2X4 receptor expressed in human 1321N1 cells assessed as inhibition of ATP-induced calcium influx at 10 uM preincubated for 30 mins prior to ATP-stimulation by calcium influx assay; format: cell-based
P2X purinoceptor 2 = target: T8, P2X purinoceptor 2 (Homo sapiens, UniProt Q9UBL9); experiment: Antagonist activity at human P2X2 receptor expressed in human 1321N1 cells assessed as inhibition of ATP-induced calcium influx preincubated for 30 mins prior to ATP-stimulation by calcium influx assay; format: cell-based
T8 sequence (Q9UBL9 whole entry): T2 sequence (whole entry)

P2X purinoceptor 3 [14] = target: T9, P2X purinoceptor 3 (Rattus norvegicus, UniProt P49654); experiment: Antagonist activity at P2X3 receptor in Wistar rat DRG neurons assessed as inhibition of alpha/beta-meATP-induced currents preincubated for 5 mins prior to alpha/beta-meATP-stimulation measured at every sec for 5 mins by whole cell patch-clamp assay
T9 sequence (P49654 whole entry): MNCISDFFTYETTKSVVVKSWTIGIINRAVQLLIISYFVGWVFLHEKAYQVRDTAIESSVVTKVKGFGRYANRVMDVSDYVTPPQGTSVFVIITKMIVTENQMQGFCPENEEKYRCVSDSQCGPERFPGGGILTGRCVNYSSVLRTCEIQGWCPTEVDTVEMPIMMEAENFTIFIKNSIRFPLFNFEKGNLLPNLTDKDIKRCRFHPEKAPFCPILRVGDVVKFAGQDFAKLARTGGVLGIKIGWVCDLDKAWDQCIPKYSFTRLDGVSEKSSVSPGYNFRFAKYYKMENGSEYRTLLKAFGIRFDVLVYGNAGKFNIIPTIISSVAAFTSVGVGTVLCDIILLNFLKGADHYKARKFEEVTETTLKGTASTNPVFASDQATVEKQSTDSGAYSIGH

## Cc1ccc(C(=O)Nc2ccc(S(=O)(=O)O)c3cc(S(=O)(=O)O)cc(S(=O)(=O)O)c23)cc1NC(=O)c1cccc(NC(=O)Nc2cccc(C(=O)Nc3cc(C(=O)Nc4ccc(S(=O)(=O)O)c5cc(S(=O)(=O)O)cc(S(=O)(=O)O)c45)ccc3C)c2)c1 [SURAMIN]
P2X purinoceptor 1
  IC50: 4680 nM

## O=C1NC(=O)N(C2CCN(C(=O)c3ccc(Cl)c(C(F)(F)F)c3)CC2)C1Cc1ccc(OS(=O)(=O)c2cccc3cnccc23)cc1 (stereo unspecified)
[1]
  inhibition: 5%
[2]
  inhibition: 28%
[3]
  inhibition: 0%
P2X purinoceptor 3 [4]
  IC50: 600 nM
P2X purinoceptor 7 [5]
  IC50: 54 nM

## COc1ccc(CC(=O)NC(N/C(=N/C#N)Nc2cccc3ncccc23)C(C)(C)C)cc1OC (stereo unspecified)
P2X purinoceptor 7 [6]
  IC50: 90 nM

## CN(C)c1ccc(C(=O)N2CCN(c3cc(=O)[nH]c(=O)n3Cc3ccc(OS(=O)(=O)c4cccc5cnccc45)cc3)CC2)cc1
P2X purinoceptor 7 [7]
  IC50: 1.53 nM
MDA-MB-231 [8]
  Activity: Non-Toxic
[1]
  inhibition: 2%
MDA-MB-231 [9]
  IC50: 2590 nM
[2]
  inhibition: 23%
Homo sapiens
  Ratio IC50: 1000 to 7000
[3]
  inhibition: 6%
P2X purinoceptor 3 [4]
  IC50: 2660 nM
P2X purinoceptor 7 [5]
  IC50: 1.33 nM
[10]
  Activity: Non-Toxic
MDA-MB-231 [11]
  inhibition: Active

## O=C(NCC12CC3CC(CC(C3)C1)C2)c1cc(CCCNCCCO)ccc1Cl
MDA-MB-231 [9]
  IC50: 8700 nM
P2X purinoceptor 7 [6]
  IC50: 10 to 13 nM
P2X purinoceptor 7 [5]
  IC50: 0.06 nM
MDA-MB-231 [11]
  inhibition: Active

## CS(=O)(=O)c1ccc(C(=O)N2CCC(c3nc4cc(OS(=O)(=O)c5cccc6cnccc56)ccc4[nH]3)CC2)cc1
P2X purinoceptor 7 [7]
  IC50: 7 nM
[1]
  inhibition: 7%
[2]
  inhibition: 16%
[12]
  inhibition: 3%
[3]
  inhibition: 15%
P2X purinoceptor 7 [5]
  IC50: 43 nM
MDA-MB-231 [11]
  inhibition: inactive

## Nc1c(S(=O)(=O)O)cc(Nc2ccc(S(=O)(=O)O)c(Nc3nc(Cl)nc(Cl)n3)c2)c2c1C(=O)c1ccccc1C2=O
[13]
  inhibition: 3%
P2X purinoceptor 2
  IC50: 692 nM

## O=C(Nc1cc(C(=O)Nc2ccc(S(=O)(=O)O)cc2)cc(C(=O)Nc2ccc(S(=O)(=O)O)cc2)c1)Nc1cc(C(=O)Nc2ccc(S(=O)(=O)O)cc2)cc(C(=O)Nc2ccc(S(=O)(=O)O)cc2)c1
P2X purinoceptor 3 [14]
  IC50: 527 nM
P2X purinoceptor 3 [4]
  IC50: 1580 nM

## CN(C)c1ccc(C(=O)N2CCC(n3cncc3-c3ccc(OS(=O)(=O)c4cccc(C(=O)NC5CC5)c4)cc3)CC2)cc1
P2X purinoceptor 7 [7]
  IC50: 0.49 nM
MDA-MB-231 [8]
  Activity: Non-Toxic
[1]
  inhibition: 7%
MDA-MB-231 [9]
  IC50: 3630 nM
[2]
  inhibition: 22%
Homo sapiens
  Ratio IC50: 1000 to 7000
[3]
  inhibition: 7%
P2X purinoceptor 3 [4]
  IC50: 910 nM
P2X purinoceptor 7 [5]
  IC50: 1.03 nM
[10]
  Activity: Non-Toxic
MDA-MB-231 [11]
  inhibition: Active

## O=C(c1ccc(Cl)c(C(F)(F)F)c1)N1CCC(n2ccc3cc(OS(=O)(=O)c4cccc5cnccc45)ccc32)CC1
P2X purinoceptor 7 [7]
  IC50: 430 nM
P2X purinoceptor 7 [5]
  IC50: 552 nM
